Tests used:
[1] = refractive index (Na D-line) (dimensionless); settings: 101.33 kPa, Liquid, Standard Abbe refractometry
[2] = for mass density / kinematic viscosity: 101.33 kPa, Liquid; for mass density: Vibrating tube method; for surface tension liquid-gas / kinematic viscosity: Surface laser light scattering (SLLS)

CCCCCCCCCC(=O)OC [methyl decanoate]
Settings	kinematic viscosity [m2/s]	mass density [kg/m3]	refractive index	surface tension liquid-gas [mN/m]
[1], 278.15 K	–	–	1.43209	–
[1], 283.15 K	–	–	1.42995	–
[1], 288.15 K	–	–	1.42783	–
[1], 293.15 K	–	–	1.42571	–
[1], 298.15 K	–	–	1.42359	–
[1], 303.15 K	–	–	1.42148	–
[1], 308.15 K	–	–	1.41938	–
[1], 313.15 K	–	–	1.41726	–
[1], 318.15 K	–	–	1.4151	–
[1], 323.15 K	–	–	1.41295	–
[1], 328.15 K	–	–	1.41083	–
[1], 333.15 K	–	–	1.40871	–
[1], 338.15 K	–	–	1.40659	–
[1], 343.15 K	–	–	1.40448	–
[1], 348.15 K	–	–	1.40237	–
[1], 353.15 K	–	–	1.40028	–
[1], 358.15 K	–	–	1.39819	–
[2], 293.15 K	–	872.34	–	–
[2], 298.14 K	2.09e-06	–	–	24.73
[2], 303.15 K	–	864.01	–	–
[2], 313.15 K	–	855.73	–	–
[2], 323.15 K	–	847.47	–	–
[2], 323.16 K	1.48e-06	–	–	23.28
[2], 333.15 K	–	839.2	–	–
[2], 343.15 K	–	830.94	–	–
[2], 348.16 K	1.13e-06	–	–	21.96
[2], 353.15 K	–	822.61	–	–
[2], 363.15 K	–	814.38	–	–
[2], 373.15 K	–	806.06	–	–
[2], 373.17 K	8.74e-07	–	–	20.49
[2], 383.15 K	–	797.7	–	–
[2], 393.15 K	–	789.29	–	–
[2], 398.08 K	6.87e-07	–	–	18.81
[2], 403.15 K	–	780.82	–	–
[2], 413.15 K	–	771.74	–	–
[2], 422.99 K	5.61e-07	–	–	16.83
[2], 423.15 K	–	763.71	–	–
[2], 433.15 K	–	755	–	–
[2], 443.15 K	–	746.3	–	–
[2], 447.95 K	4.52e-07	–	–	14.87
[2], 453.15 K	–	737.39	–	–

CCCCCCCCCCCCCC(=O)OCC [ethyl tetradecanoate]
Settings	kinematic viscosity [m2/s]	mass density [kg/m3]	refractive index	surface tension liquid-gas [mN/m]
[1], 288.15 K	–	–	1.43841	–
[1], 293.15 K	–	–	1.43636	–
[1], 298.15 K	–	–	1.43432	–
[1], 303.15 K	–	–	1.4323	–
[1], 308.15 K	–	–	1.43026	–
[1], 313.15 K	–	–	1.4282	–
[1], 318.15 K	–	–	1.42613	–
[1], 323.15 K	–	–	1.42407	–
[1], 328.15 K	–	–	1.42205	–
[1], 333.15 K	–	–	1.42004	–
[1], 338.15 K	–	–	1.41803	–
[1], 343.15 K	–	–	1.41603	–
[1], 348.15 K	–	–	1.41406	–
[1], 353.15 K	–	–	1.41208	–
[1], 358.15 K	–	–	1.4101	–
[2], 293.15 K	–	860.8	–	–
[2], 303.15 K	–	853.07	–	–
[2], 313.15 K	–	845.46	–	–
[2], 323.14 K	2.63e-06	–	–	24.08
[2], 323.15 K	–	837.86	–	–
[2], 333.15 K	–	830.3	–	–
[2], 343.15 K	–	822.77	–	–
[2], 348.16 K	1.9e-06	–	–	22.25
[2], 353.15 K	–	815.26	–	–
[2], 363.15 K	–	807.75	–	–
[2], 373.15 K	–	799.27	–	–
[2], 373.22 K	1.43e-06	–	–	20.56
[2], 383.15 K	–	792.77	–	–
[2], 393.15 K	–	785.27	–	–
[2], 398.24 K	1.12e-06	–	–	19.48
[2], 403.15 K	–	777.75	–	–
[2], 413.15 K	–	770.21	–	–
[2], 423.15 K	–	762.65	–	–
[2], 423.26 K	8.97e-07	–	–	18.15
[2], 433.15 K	–	755.04	–	–
[2], 443.15 K	–	747.42	–	–
[2], 448.28 K	7.25e-07	–	–	16.53
[2], 453.15 K	–	739.78	–	–

— the NIST ThermoML archive (doi:10.1016/j.jct.2019.02.025)
